Test results reported in ChEMBL document CHEMBL1201862, “PubChem BioAssay data set” (2004).
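Briefly, cells in 96-well plates were exposed to five compound concentrations for 48 h, and endpoints were estimated by linear interpolation. GI50: concentration for 50% inhibition of growth.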 The source made the active and inactive calls. No stated cut-off is given here; in the data, active = GI50 up to about 1.1 µM and inactive = higher.

Legend:
Test in all cases: growth of human tumour cells (NCI), 48 h
[1] = test system: SK-MEL-28
[2] = test system: RXF 393
[3] = test system: Malme-3M
[4] = test system: OVCAR-3
[5] = test system: HT-29
[6] = test system: MDA-MB-435
[7] = test system: 786-0
[8] = test system: U-251
[9] = test system: OVCAR-8
[10] = test system: A549
[11] = test system: TK-10
[12] = test system: HOP-92
[13] = test system: RPMI-8226
[14] = test system: CCRF-CEM
[15] = test system: PC-3
[16] = test system: EKVX
[17] = test system: SF-268
[18] = test system: OVCAR-5
[19] = test system: COLO 205
[20] = test system: SK-OV-3

SMILES	GI50 [1]	GI50 [2]	GI50 [3]	GI50 [4]	GI50 [5]	GI50 [6]	GI50 [7]	GI50 [8]	GI50 [9]	GI50 [10]	GI50 [11]	GI50 [12]	GI50 [13]	GI50 [14]	GI50 [15]	GI50 [16]	GI50 [17]	GI50 [18]	GI50 [19]	GI50 [20]
C[C@H]1[C@H](C)CC[C@]2(C(=O)OC3OC(CO)C(O)C(O)C3O)CC[C@]3(C)C(=CC[C@@H]4[C@@]5(C)C[C@H]6OC(=O)c7cc(O)c(O)c(O)c7-c7c(cc(O)c(O)c7O)C(=O)O[C@@H]6C(CO)(CO)[C@@H]5CC[C@]43C)[C@H]12 (stereo not given in full)	> 100 µM (inactive)	> 100 µM (inactive)	> 100 µM (inactive)	> 43 µM (inactive)	24.1 µM (inactive)	18.7 µM (inactive)	19.5 µM (inactive)	17.7 µM (inactive)	55.8 µM (inactive)	> 100 µM (inactive)	> 100 µM (inactive)	> 100 µM (inactive)	> 100 µM (inactive)	24.5 µM (inactive)	> 82.6 µM (inactive)	> 100 µM (inactive)	> 69.8 µM (inactive)	> 95.9 µM (inactive)	> 100 µM (inactive)	> 95.5 µM (inactive)
N#C/C=C1\C=CC(O)C(O)C1OC1OC(CO)C(O)C(O)C1O (stereo not given)	> 100 µM (inactive)	> 100 µM (inactive)	> 100 µM (inactive)	> 100 µM (inactive)	> 100 µM (inactive)	> 100 µM (inactive)	> 100 µM (inactive)	> 100 µM (inactive)	> 100 µM (inactive)	> 100 µM (inactive)	> 100 µM (inactive)	> 100 µM (inactive)	> 100 µM (inactive)	> 100 µM (inactive)	> 100 µM (inactive)	> 100 µM (inactive)	> 100 µM (inactive)	> 100 µM (inactive)	> 100 µM (inactive)	> 100 µM (inactive)
N#Cc1cc(-c2nc3cc(F)ccc3s2)ccc1N	> 100 µM (inactive)	2.11 µM (inactive)	> 79.1 µM (inactive)	19.8 µM (inactive)	1.97 µM (inactive)	> 78.3 µM (inactive)	27.6 µM (inactive)	12.4 µM (inactive)	> 67.9 µM (inactive)	1.84 µM (inactive)	0.034 µM (active)	4.08 µM (inactive)	> 100 µM (inactive)	> 100 µM (inactive)	24.7 µM (inactive)	0.253 µM (active)	18.1 µM (inactive)	0.0702 µM (active)	1.8 µM (inactive)	20.7 µM (inactive)
NS(=O)(=O)c1ccc(Nc2c3ccccc3nc3c(C(=O)NC(CO)(CO)CO)cccc23)cc1	0.242 µM (active)	0.185 µM (active)	0.135 µM (active)	0.15 µM (active)	0.184 µM (active)	0.212 µM (active)	0.0201 µM (active)	0.119 µM (active)	0.181 µM (active)	0.123 µM (active)	0.164 µM (active)	0.153 µM (active)	0.217 µM (active)	0.0557 µM (active)	0.226 µM (active)	0.314 µM (active)	0.17 µM (active)	0.233 µM (active)	0.0515 µM (active)	0.188 µM (active)
COC1OC(C)C(NC(=O)OCC(Cl)(Cl)Cl)C2OC(C)(C)OC12 (stereo not given)	> 100 µM (inactive)	> 100 µM (inactive)	> 100 µM (inactive)	> 100 µM (inactive)	> 100 µM (inactive)	> 100 µM (inactive)	> 100 µM (inactive)	> 100 µM (inactive)	> 100 µM (inactive)	> 100 µM (inactive)	> 100 µM (inactive)	> 100 µM (inactive)	> 100 µM (inactive)	> 100 µM (inactive)	> 100 µM (inactive)	> 100 µM (inactive)	> 100 µM (inactive)	> 100 µM (inactive)	> 100 µM (inactive)	> 100 µM (inactive)
CCOP(=O)(CCCC(O)CNc1cc(Cl)nc(N)n1)OCC (stereo not given)	> 100 µM (inactive)	> 100 µM (inactive)	> 100 µM (inactive)	> 100 µM (inactive)	> 100 µM (inactive)	> 100 µM (inactive)	> 100 µM (inactive)	> 100 µM (inactive)	> 100 µM (inactive)	> 100 µM (inactive)	> 100 µM (inactive)	> 100 µM (inactive)	> 100 µM (inactive)	> 100 µM (inactive)	> 100 µM (inactive)	> 100 µM (inactive)	> 100 µM (inactive)	> 100 µM (inactive)	> 100 µM (inactive)	> 100 µM (inactive)
CCCCC(=C=C1CCCCC1O)C1CCCN1C(=O)OC(C)(C)C (stereo not given)	15.5 µM (inactive)	13 µM (inactive)	17.3 µM (inactive)	15.7 µM (inactive)	14.3 µM (inactive)	16.9 µM (inactive)	16.1 µM (inactive)	15.9 µM (inactive)	18.7 µM (inactive)	14.9 µM (inactive)	16.1 µM (inactive)	12.8 µM (inactive)	12.6 µM (inactive)	17.6 µM (inactive)	16.1 µM (inactive)	14.9 µM (inactive)	17.3 µM (inactive)	16 µM (inactive)	17.3 µM (inactive)	16.5 µM (inactive)
CC(=O)Nc1ccc(/C=C2/NC(=S)N(/C=C3\C(=O)Oc4ccccc4C3=O)C2=O)cc1	85.7 µM (inactive)	> 100 µM (inactive)	> 100 µM (inactive)	24 µM (inactive)	44.9 µM (inactive)	75.5 µM (inactive)	69 µM (inactive)	46.3 µM (inactive)	38.6 µM (inactive)	58.9 µM (inactive)	55.8 µM (inactive)	63.2 µM (inactive)	47.9 µM (inactive)	45.1 µM (inactive)	54.5 µM (inactive)	> 100 µM (inactive)	29.4 µM (inactive)	> 100 µM (inactive)	61.8 µM (inactive)	66.1 µM (inactive)
C/C=C/COc1cc(NC(=S)OC(C)C)ccc1Cl.C/C=C\COc1cc(NC(=S)OC(C)C)ccc1Cl	17.6 µM (inactive)	14.9 µM (inactive)	15 µM (inactive)	18.5 µM (inactive)	15.3 µM (inactive)	21.2 µM (inactive)	17.3 µM (inactive)	16.9 µM (inactive)	18.7 µM (inactive)	15.6 µM (inactive)	14.9 µM (inactive)	11.8 µM (inactive)	70.1 µM (inactive)	25.3 µM (inactive)	16.3 µM (inactive)	12.6 µM (inactive)	17.7 µM (inactive)	19 µM (inactive)	17.6 µM (inactive)	21.9 µM (inactive)
N=C(N)c1ccc(/N=N\c2c(O)ccc3cc4c(/N=N\c5ccc(C(=N)N)cc5)c(O)ccc4cc23)cc1	> 100 µM (inactive)	> 100 µM (inactive)	> 100 µM (inactive)	> 100 µM (inactive)	75.9 µM (inactive)	> 100 µM (inactive)	49 µM (inactive)	51.1 µM (inactive)	80.4 µM (inactive)	> 100 µM (inactive)	> 100 µM (inactive)	> 100 µM (inactive)	28 µM (inactive)	37.2 µM (inactive)	> 100 µM (inactive)	> 100 µM (inactive)	95.3 µM (inactive)	> 100 µM (inactive)	> 100 µM (inactive)	> 100 µM (inactive)
O=C1C(/C=N/CCc2c[nH]c3ccccc23)C(C(F)(F)F)=NN1c1nc2ccccc2s1 (stereo not given)	33.3 µM (inactive)	15 µM (inactive)	29.6 µM (inactive)	20.7 µM (inactive)	27.5 µM (inactive)	25.4 µM (inactive)	39.2 µM (inactive)	34.8 µM (inactive)	29.7 µM (inactive)	18.3 µM (inactive)	25.4 µM (inactive)	16.4 µM (inactive)	22.2 µM (inactive)	19.5 µM (inactive)	31 µM (inactive)	23.1 µM (inactive)	50.5 µM (inactive)	29.2 µM (inactive)	17.7 µM (inactive)	25.3 µM (inactive)
COc1cc2c(=O)cnoc2cc1O	> 100 µM (inactive)	> 100 µM (inactive)	> 100 µM (inactive)	> 100 µM (inactive)	> 100 µM (inactive)	> 100 µM (inactive)	> 100 µM (inactive)	> 100 µM (inactive)	> 100 µM (inactive)	> 100 µM (inactive)	> 100 µM (inactive)	> 100 µM (inactive)	> 100 µM (inactive)	> 100 µM (inactive)	> 100 µM (inactive)	> 100 µM (inactive)	> 100 µM (inactive)	> 100 µM (inactive)	> 100 µM (inactive)	> 100 µM (inactive)
CC(C)(C)c1cc(C(=O)C2Cc3ccccc3C(=O)O2)cc(C(C)(C)C)c1O (stereo not given)	15.8 µM (inactive)	12.1 µM (inactive)	14.6 µM (inactive)	12.2 µM (inactive)	14.4 µM (inactive)	10.7 µM (inactive)	12.3 µM (inactive)	10.5 µM (inactive)	10.4 µM (inactive)	13.1 µM (inactive)	15.3 µM (inactive)	18.2 µM (inactive)	5.93 µM (inactive)	5.01 µM (inactive)	11.7 µM (inactive)	12.3 µM (inactive)	14.5 µM (inactive)	16.6 µM (inactive)	17.6 µM (inactive)	24 µM (inactive)
